4 molecules from ChEMBL document CHEMBL1137513, “Synthesis and biological activities of quinazoline derivatives with ortho-phenol-quaternary ammonium salt groups” (Bioorg Med Chem, 2007) can be followed below.

The subject of one experiment is DNA. The experiment in a line: Binding affinity to calf thymus DNA at 2 uM by thermal denaturation study. It is filed as nucleic-acid assay. Particulars: Bos taurus.
Experiment [1] concerns Escherichia phage T7. The experiment in a line: Inhibition of T7 RNA polymerase transcription at 5 uM after irradiation. It is filed as functional.
The subject of experiment [2] is Escherichia phage T7. Kind of experiment: Inhibition of T7 RNA polymerase transcription at 10 uM after irradiation. The class given is functional.
For experiment [3], the system named is Escherichia phage T7. The experiment in a line: Inhibition of T7 RNA polymerase transcription at 20 uM after irradiation. It is filed as functional.
The subject of experiment [4] is Escherichia coli. The experiment in a line: Induction of pBR322 DNA interstand cross link at 100 uM by agarose gel electrophoresis assay.
Experiment [5] relates to Escherichia coli. Kind of experiment: Induction of pBR322 DNA interstand cross link at pH 7.7 by agarose gel electrophoresis assay.
Experiment [6] has as its system Escherichia coli. The experiment in a line: Induction of pBR322 DNA interstand cross link at 5 uM by agarose gel electrophoresis assay.
The test system of experiment [7] is Escherichia coli. The experiment in a line: Induction of pBR322 DNA interstand cross link at 1 uM by agarose gel electrophoresis assay.

The source made the active and inactive calls. The rule behind the calls is not given here.

Regarding `COc1cc2nc(Nc3ccc(O)c(C[N+](C)(C)C)c3)nc(N)c2cc1OC`, the ΔTm in the experiment with DNA was 7.4 °C. Also, the outcome in the experiment on Escherichia phage T7 [1] and in the experiment with Escherichia phage T7 [2] was Active.
On to `C[N+](C)(C)Cc1cc(CCC(=O)NCCNC(=O)CCc2ccc(O)c(C[N+](C)(C)C)c2)ccc1O`, for which, in the experiment on DNA, the ΔTm came to 0.5 °C. Besides, the result with Escherichia phage T7 [3] and with Escherichia coli [4] was inactive.
As to `COc1cc2nc(Cl)nc(Nc3ccc(O)c(C[N+](C)(C)C)c3)c2cc1OC`, in the experiment with DNA, the ΔTm amounted to 5.8 °C. Also, the outcome with Escherichia phage T7 [1] and with Escherichia phage T7 [2] was Active.
As to `COc1cc2nc(Nc3ccc(O)c(C[N+](C)(C)C)c3)nc(Nc3ccc(O)c(C[N+](C)(C)C)c3)c2cc1OC`, the result with Escherichia coli [5], with Escherichia phage T7 [1], in the experiment on Escherichia phage T7 [2] and with Escherichia coli [4] was Active. In addition, the results for the Activity in the experiment with Escherichia coli [6] and in the experiment with Escherichia coli [7] were 46% and 28%, respectively. Also, in the experiment on DNA, the ΔTm was determined as 8.6 °C.

The term ΔTm denotes the shift of the melting midpoint relative to a reference.
